In US9011826B2, “Cosmetic and dermatological formulations including isononyl benzoate” (Evonik Degussa GmbH, priority 2007, dated 2015):

Assays:
[1] = known solvents (lipids) for this UV-B filter; cited from earlier work
[2] = Dissolving power for crystalline UV light protection filters; type: physicochemical; conditions: 22° C., percent by weight; for Dissolving power (maximum dissolved amount of UV filter) BP-3: Benzophenone-3 dissolved in the product; for Dissolving power (maximum dissolved amount of UV filter) BEMT: Bis-ethylhexyloxyphenol Methoxyphenyl Triazine dissolved in the product; for Dissolving power (maximum dissolved amount of UV filter) BMDM: Butyl Methoxydibenzoylmethane dissolved in the product; for Dissolving power (maximum dissolved amount of UV filter) EHT: Octyl Triazone dissolved in the product
From the text: Four representative UV-A or UV-B light protection filters were chosen as representatives for testing the dissolving power for crystalline UV light protection filters in isononyl benzoate (Vestinol® INB, Evonik Oxeno GmbH). These were Benzophenone-3 (2-hydroxy-4-methoxy-benzophenone, BP-3), Butyl Methoxydibenzoylmethane (BMDM), Octyl Triazone (2,4,6-trianilino-p-(carbo-2′-ethylhexyl-1′-oxy)-1,3,5-triazine, EHT) and bemotrizinol (Bis-ethylhexyloxyphenol Methoxyphenyl Triazine, BEMT).
For determination of the dissolving power for these […] UV light protection filters, in each case a particular amount (50 g) of one of the compounds according to the invention was initially introduced into the dissolving vessel and temperature-controlled at 22° C. 1 percent by weight of a UV light protection filter was then added and the mixture was stirred until this amount had dissolved completely and homogeneously. This operation was repeated until the maximum amount of the UV light protection filter which can be dissolved had been exceeded. For complete dissolving, a relatively long stirring time of several hours was often necessary at higher concentrations.
Once the maximum concentration had been roughly determined in this manner, the test was repeated with smaller weights of the UV light protection filter for fine determination of the concentration range around this maximum concentration.
The compound Tegosoft® TN (C12-15 Alkyl Benzoate) was used as a reference.

CCCCC(CC)COC(=O)c1ccc(Nc2nc(Nc3ccc(C(=O)OCC(CC)CCCC)cc3)nc(Nc3ccc(C(=O)OCC(CC)CCCC)cc3)n2)cc1 (stereo not drawn) [UVINUL™ T 150, 4,4′,4″-(1,3,5-Triazine-2,4,6-triyltriimino)-tris-benzoic acid tris(2-ethylhexyl ester)]
Maximum amount of the filter dissolved by known solvents [1]: approx. 15 wt. %

C12-15 Alkyl Benzoate [Tegosoft ® TN, reference compound]
Dissolving power (maximum dissolved amount of UV filter) BP-3 [2]: 15% | Dissolving power (maximum dissolved amount of UV filter) BEMT [2]: 9% | Dissolving power (maximum dissolved amount of UV filter) BMDM [2]: 13% | Dissolving power (maximum dissolved amount of UV filter) EHT [2]: 4%

CC(C)CCCCCCOC(=O)c1ccccc1 [Isononyl Benzoate, isononyl benzoate]
Dissolving power (maximum dissolved amount of UV filter) BP-3 [2]: 21% | Dissolving power (maximum dissolved amount of UV filter) BEMT [2]: 12% | Dissolving power (maximum dissolved amount of UV filter) BMDM [2]: 14% | Dissolving power (maximum dissolved amount of UV filter) EHT [2]: 6%
